No end group written: not given here.

The values below come from patent US20120269815A1, “NEUROTROPHINS AND USES THEREOF” (Regents of the University of Minnesota, priority 2008, published 2012).

The assay addresses T1, p75^NTR (Homo sapiens, UniProt P08138).
T1 construct: host or cells: COS7
T1 sequence (P08138 29-427): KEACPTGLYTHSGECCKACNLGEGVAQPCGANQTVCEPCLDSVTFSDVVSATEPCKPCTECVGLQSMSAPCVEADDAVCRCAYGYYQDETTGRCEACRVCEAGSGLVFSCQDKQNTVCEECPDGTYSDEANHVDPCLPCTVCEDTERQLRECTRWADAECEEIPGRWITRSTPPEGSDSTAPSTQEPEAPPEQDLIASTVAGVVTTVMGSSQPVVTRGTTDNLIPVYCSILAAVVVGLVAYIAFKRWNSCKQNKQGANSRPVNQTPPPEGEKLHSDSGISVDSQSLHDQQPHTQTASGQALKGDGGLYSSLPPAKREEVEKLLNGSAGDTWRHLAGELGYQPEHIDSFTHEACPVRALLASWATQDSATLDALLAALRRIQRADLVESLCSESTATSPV
Description: Fluorescence-labeled TUF1 peptide binding to COS7 cells expressing p75NTR. The following applies: labeled peptide 5 nM, 90 min, COS7 cells transfected with pCMV-SPORT6-p75. As for the experimental part: COS7 cells were seeded at 10,000 cells/well onto a 18 mm coverslip in a 12-well plate. Cells were allowed to settle overnight in a cell culture incubator (NuAire NU-8600, NuAire, Inc., Plymouth, Minn.) set at 37° C. and 5% CO2. Cells were transfected with pCMV-eGFP (Clontech Laboratories, Inc., Mountain View, Calif.) or pCMV-SPORT6-p75 (ATCC) using Fugene HD (Roche Diagnostics Corp., Indianapolis, Ind.) and were incubated overnight. The binding assays were carried out according to Horton et al. with modifications. Synthetic TUF1 peptides (TUF1[43-54] (SEQ ID NO:1) and TUF1[24-40] (SEQ ID NO:3) were generated (via Sigma Genosys, Sigma-Aldrich Co. St. Louis, Mo.) and were conjugated per manufacturer's recommendation with DyLight 549 NHS Ester (Thermo Fisher Scientific, Waltham, Mass.), which have similar spectra to Cy3 dye. Unconjugated dye was removed with a dye removal column (Thermo Fisher Scientific, Waltham, Mass.). Labeled peptides were diluted to 5 nM in 0.15 M Sucrose/PBS and added (1.0 ml/well) to transfected COS7 cells. The binding reaction was incubated in the dark at room temperature for 90 minutes. Cells were rinsed thoroughly with PBS+0.05% Tween-20 to remove unbound peptide. Cells were then fixed with 4% Paraformaldehyde (5 minutes).
Following fixation, cells were permeabilized in PBS+0.1% Tween-20 for 10 minutes, rinsed thoroughly with PBS, and blocked in BSA (10 mg/ml) for 10 minutes. Cells were incubated with rabbit anti-p75^NTR antibody (1:10,000 dilution) for 30 minutes. Excess antibody was removed with PBS washes. Cells were then incubated with Alexa-488 goat anti-rabbit antibody (1:500 dilution, Invitrogen). Cells were again rinsed thoroughly with PBS and mounted in Vectashield mounting media plus DAPI (Vector Laboratories, Inc., Burlingame, Calif.).
COS7 cells were seeded at 10,000 cells/well onto an 18 mm coverslip in a 12-well plate. Cells were allowed to settle overnight in a cell culture incubator (NuAire NU-8600, NuAire, Inc., Plymouth, Minn.) set at 37° C. and 5% CO2. Cells were transfected with pCMV-eGFP (Clontech Laboratories, Inc., Burlingame, Calif.) or pCMV-SPORT6-p75 (ATCC) using Fugene HD (Roche Diagnostics Corp., Indianapolis, Ind.) and were incubated overnight. The binding assays were carried out according to Horton et al. with modifications. Synthetic TUF1 peptides (TUF1[43-54] (SEQ ID NO:1) and TUF1[24-40] (SEQ ID NO:3)) were generated (via Sigma Genosys, Sigma-Aldrich, St. Louis, Mo.) and were conjugated per manufacturer's recommendation with DyLight 549 NHS Ester (Thermo Fisher Scientific Inc., Waltham, Mass.), which have similar spectra to Cy3 dye. Unconjugated dye was removed with a dye removal column (Thermo Fisher Scientific Inc., Waltham, Mass.). Labeled peptides were diluted to 5 nM in 0.15M Sucrose/PBS and added (1.0 ml/well) to transfected COS7 cells. The binding reaction was incubated in the dark at room temperature for 90 min. Cells were rinsed thoroughly with PBS+0.05% Tween-20 to remove unbound peptide. Cells were then fixed with 4% Paraformaldehyde (5 minutes).
Following fixation, cells were permeabilized in PBS+0.1% Tween-20 for 10 minutes, rinsed thoroughly with PBS, and blocked in BSA (10 mg/ml) for 10 minutes. Cells were incubated with rabbit anti-p75^NTR antibody (1:10,000 dilution) for 30 minutes. Excess antibody was removed with PBS washes. Cells were then incubated with Alexa-488-goat anti-rabbit antibody (1:500 dilution, Invitrogen Corp., Carlsbad, Calif.). […]

For AYKSYVRALPLL [TUF1[43-54]], the “binding to p75^NTR” value is on record as “binds more readily to p75 neurotrophic receptor”. For the same sequence, the “binding to p75^NTR” value (listed as TUF1^43-54) is given as “found to bind the p75^NTR”. For the same sequence, under “listed as TUF1 peptide”, the “binding to p75^NTR” value is “binds p75 receptor expressed in COS cells”.
